Test results: US6593339B1, “Use of compounds as antibacterial agents” (AstraZeneca AB, priority 1999, dated 2003)

Tested on: Helicobacter pylori Reference Strain NCTC 11 637
Test: Agar well diffusion test: inhibition zones around wells on blood agar plates
Assay type: cell-based
Conditions: 30 μl per 3 mm well, incubated four days
Experimental: Strain: Helicobacter pylori Reference Strain NCTC 11 637 (National Type Culture Collection, from Smittskyddsinstitutet in Solna, Sweden), an Antibiotic Sensitive Reference Strain
Helicobacter pylori was grown on blood agar plates, having a diameter of 90 mm. for three days under microaerophilic conditions at 37° C. The bacteria were suspended in PBS (phosphate buffer saline) to approximately 10^8 cfu/ml. Approximately 2 ml of the suspension was added to one agar plate and spread even on the surface of the agar. Overflow was removed with a syringe. Wells, like small holes, 3 mm in diameter, were made in the agarplate by removing agar. Three wells per plate were made. […] 30 μl of the solution was added to the wells. The plates were incubated for four days before they were checked for inhibition zones around the wells.

CC(=O)N[C@H](C(=O)O)C(C)(C)SN=O [SNAP, S-nitroso-N-acetyl-penicillamin]
inhibition zone around each well (stock solution 10000 μg/ml): No inhibition zones

COc1ccc2cc([C@H](C)C(=O)O)ccc2c1 [Naproxen]
zone of inhibition at 10000 µg/mL (Helicobacter pylori, NCTC11, 96 h, stock solution 10000 μg/ml, read-out: inhibition zone around each well): 16.6 mm | inhibition zone around each well (stock solution 100 μg/ml): No inhibition zones | inhibition zone around each well (stock solution 1000 μg/ml): No inhibition zones

COc1ccc2cc(C(C)C(=O)OCCCCO[N+](=O)[O-])ccc2c1 (stereo not drawn) [formula Ia]
zone of inhibition at 100 µg/mL (Helicobacter pylori, NCTC11, 96 h, stock solution 100 μg/ml, read-out: inhibition zone around each well): 10.4 mm | zone of inhibition at 1000 µg/mL (Helicobacter pylori, NCTC11, 96 h, stock solution 1000 μg/ml, read-out: inhibition zone around each well): 13 mm | inhibition zone around each well (stock solution 10000 μg/ml): large | inhibition zone around each well (stock solution 100000 μg/ml): large

C[S+](C)[O-] [DMSO, Di-methyl-sulphate-oxide]
inhibition zone around each well (solution 20 μg/ml): No inhibition zones
